The values below come from patent publication US11826402B2, “Combination therapy involving antibodies against claudin 18.2 for treatment of metastatic pancreatic adenocarcinoma” (Astellas Pharma Inc., priority 2013, dated 2023).

Common to all, as to assay type: cell-based, human
The test system of experiment [1] is Kato III cells. As to the kind of experiment: Cell cycle analysis of gastric cancer cells with cytostatic compounds. The method, then:
Kato III cells, a human gastric tumor cell line, was cultivated in RPMI 1640 medium (Invitrogen) containing 20% FCS (Perbio) and 2 mM Glutamax (Invitrogen) at 37° C. and 5% CO2, with or without cytostatic compounds. 5-FU (Neofluor from NeoCorp AG) was tested at a concentration of 10 or 100 ng/ml, and oxaliplatin (Hospira) was tested at a concentration of 50 or 500 ng/ml. […] Cells were harvested with EDTA/trypsin, washed and analysed.
Cell cycle stages were determined based on measurement of cellular DNA content. This allows one to discriminate between cells in the G1-, S- or G2-phase of the cell cycle. In the S-phase DNA duplication occurs whereas in the G2-phase cells grow and prepare for mitosis. Cell cycle analysis was done using the CycleTEST PLUS DNA Reagent Kit from BD Biosciences following the manufacturer's protocol. Flow cytometry acquisition and analysis were performed by using BD FACS CantoII (BD Biosciences) and FlowJo (Tree Star) software.
Kato III cells were pretreated for 4 days with Irinotecan or Docetaxel and analysed for CLDN18.2 expression and cell cycle arrest.

In experiment [2] the test system is Kato III cells. Description: Kato III cells pretreated with cytostatic compounds: cell growth, viable cells, CLDN18.2 expression. To be noted: for claudin18.2 expression versus medium cultivated cells / level of viable cells versus medium cultivated cells: Kato III pretreated 3 days, Irinotecan 1000 ng/ml, Docetaxel 5 ng/ml, Cisplatin 2000 ng/ml; for cell growth: Kato III pretreated for 4 days.

In another experiment the test system is KATO-III. Description: IMAB362-induced ADCC on gastric cancer cells, also after chemotherapy pretreatment. As to conditions: Kato III pretreated 3 days; Irinotecan 1000 ng/ml, Docetaxel 5 ng/ml, Cisplatin 2000 ng/ml. As for the experimental part:
Peripheral blood mononuclear cells (PBMCs) including NK cells, monocytes, […] or other effector cells from healthy human donors were purified by Ficoll Hypaque density centrifugation. Washed effector cells were seeded in X-Vivo medium. Kato III cells which express CLDN18.2 endogenously and are of gastric origin were used as target cells in this setting. Target cells stably expressed luciferase, lucifer yellow, which is oxidized by viable cells only.

A further experiment deals with MiaPaCa-2-LVT. As to the kind of experiment: Inhibition of proliferation (XTT viability assay, 4 days). As for the experimental part:
To analyze dose-response curves of each chemotherapeutic agent, a proliferation assay was performed.
Cells were seeded in 96 well plates and after 4-6 hours gemcitabine or oxaliplatin was added in following concentrations: 1000, 500, 250, 100 and 20 ng/ml. The proliferation assay was incubated for 4 days at 37° C. and 5% CO2. 50 μl XTT complete reagent (50 parts XTT+1 part coupl. reagent mixed) was added and incubated at 37° C. Measurement of absorbance (cells plus supernatant) was done with the Tecan Safire after 3 h and 4 h. Inhibition of proliferation was calculated compared to medium values set as 100%. EC50 values for gemcitabine and oxaliplatin were calculated in the GraphPad Prism program.

For the compound `O=c1[nH]cc(F)c(=O)[nH]1` [5-FU, 5-fluoro-1H-pyrimidine-2,4-dione], the cell cycle effect entry in the experiment on Kato III cells [1] is recorded as “blocked predominantly in the S-phase”.

For the compound `N.N.[Cl][Pt][Cl]` [Cisplatin, cis-diaminedichloroplatinum(II)], in the experiment with Kato III cells [2], the “claudin18.2 expression versus medium cultivated cells” value is reported as “increased” and the “level of viable cells versus medium cultivated cells” value is given as “lower level of viable cells”. Besides, in the experiment on KATO-III, the “effect of pretreatment on IMAB362 induced ADCC” value (shortened to “effect of pretreatment”) is reported as “augments the potency of IMAB362 to induce ADCC”.

With `CC(=O)O[C@@]12CO[C@@H]1C[C@H](O)[C@@]1(C)C(=O)[C@H](O)C3=C(C)[C@@H](OC(=O)[C@H](O)[C@@H](NC(=O)OC(C)(C)C)c4ccccc4)C[C@@](O)([C@@H](OC(=O)c4ccccc4)[C@H]21)C3(C)C` [Docetaxel, 1,7β,10β-trihydroxy-9-oxo-5β,20-epoxytax-11-ene-2α,4,13α-triyl 4-acetate 2-benzoate 13-{(2R,3S)-3-[(tert-butoxycarbonyl)-amino]-2-hydroxy-3-phenylpropanoate}], the cell cycle effect entry with Kato III cells [1] is “cell cycle arrest in the G2-phase”. In addition, in the experiment on Kato III cells [2], the “claudin18.2 expression versus medium cultivated cells” value is “increased”, the “level of viable cells versus medium cultivated cells” value is recorded as “lower level of viable cells” and the cell growth entry is reported as “dose dependent inhibition of cell growth”. Further, the “effect of pretreatment” value in the experiment on KATO-III is reported as “augments the potency of IMAB362 to induce ADCC”.

For the compound `CCc1c2c(nc3ccc(OC(=O)N4CCC(N5CCCCC5)CC4)cc13)-c1cc3c(c(=O)n1C2)COC(=O)[C@]3(O)CC` [Irinotecan, (S)-4,11-diethyl-3,4,12,14-tetrahydro-4-hydroxy-3,14-dioxo1H-pyrano[3′,4′:6,7]-indolizino[1,2-b]quinolin-9-yl-[1,4′-bipiperidine]-1′-carboxylate], the cell cycle effect entry in the experiment with Kato III cells [1] was “cell cycle arrest in the S/G2-phase”. Besides, in the experiment on Kato III cells [2], the “claudin18.2 expression versus medium cultivated cells” value is reported as “increased”, the “level of viable cells versus medium cultivated cells” value is reported as “lower level of viable cells” and the cell growth entry is “dose dependent inhibition of cell growth”. Besides, the “effect of pretreatment” value with KATO-III is “augments the potency of IMAB362 to induce ADCC”.

For the compound `O=C1[O][Pt]2([NH][C@@H]3CCCC[C@H]3[NH]2)[O]C1=O` [oxaliplatin, [(1R,2R)-cyclohexane-1,2-diamine](ethanedioato-O,O′)platinum(II)], in the experiment on MiaPaCa-2-LVT, the “sensitivity of cells to the agent” value was “most sensitive”.
